According to patent US9327025B2, “Enriched 10-boron composition for cancer therapy and a method of synthesizing the same” (priority 2012, dated 2016):
Read-outs that look alike come from different tables or passages of the source.

How the values were obtained:
[1] = cancerous mice; in vitro and in vivo tests
From the text: In this research, a new smart drug, Enriched Boron-10 Calcium Fructo Borate (E^10BCFB), was investigated for using in cancer cells treatment in BNCT methods. […] E^10BCFB is in fact an artificial Calcium Fructo-Borate which is synthesized chemically with 10-Boron.

[2] = tested on: MDA-MB241 cell line (malignant breast cells); details: 24 hours
Experimental: MTT assay method was applied for evaluating the effects of Boron complex on MDA-MB241 cell line (malignant breast cells) in in vitro environment.
This is due to the fact that since food composition was used in the synthesis of the drug, tumor cells think that they are provided with food compostions. But after a while the number of cells will decrease by the drug. For different concentrations of Boron including 5 mg, 10 mg, 25 mg, 50 mg and 100 mg, these decreases are equal to 80, 50, 64, 79, and 36. After 48 hours similar results with little differences have been observed with 24 hours time interval.

[3] = tested on: breast cancer cells MDA-MB-231

Enriched 10-Boron Calcium Fructo Borate [E^10BCFB]
safety of the drug [1]: safe
concentration ratio of tumor to the 10-Boron concentration in the blood (3 hours after injection of 41.1 mg complex per 30 gram animal weight): about 4.5
concentration of 10-Boron in the blood (3 hours after intraperitoneal injection of 41.1 mg complex per 30 gram animal weight, blood): about 6.1 ppm
accumulation of 10-Boron in tumor cells (3 hours after intraperitoneal injection of 41.1 mg complex per 30 gram animal weight, tumor): about 27 ppm
decrease of the number of cells (MTT) ([2]; concentration of Boron 5 mg): 80
decrease of the number of cells (MTT) ([2]; concentration of Boron 10 mg): 50
decrease of the number of cells (MTT) ([2]; concentration of Boron 25 mg): 64
decrease of the number of cells (MTT) ([2]; concentration of Boron 50 mg): 79
decrease of the number of cells (MTT) ([2]; concentration of Boron 100 mg): 36
growth of breast cancer cells ([3]; MDA-MB-231): prevents the growth of breast cancer cells
Caspase-3 activity ([3]; tumor cells treated with the drug): increases the Caspase-3 activity
